Data on nine compounds can be found in patent publication US7465736B2, “Azole methylidene cyanide derivatives and their use as protein kinase modulators” (Laboratoires Serono S.A., priority 2002, dated 2008).

One assay has as its target human GSK3 β (Homo sapiens, UniProt P49841). The experiment in a line: GSK3β in vitro assay (33P incorporation into phospho GS2 peptide, scintillation counting). To be noted: in vitro potency on human GSK3 β. It is filed as biochemical. The protocol: GSK3β Assay (see Naerum et al., Bioorg. Med. Chem. Lett 12 p. 1525-1528 (2002))
In a final reaction volume of 25 μl, the protein kinase GSK3β (h) (5-10 mU) is incubated with 8 mM MOPS at a pH of 7.0, in 0.2 mM EDTA, as well as 20 μM of the peptide […](p)EDEEE (SEQ ID NO: 1; a phosphor GS2 peptide being the GSK3 substrate in this assay), 10 mM Mg Acetate and [γ-^33P-ATP] (Specific activity approx. 500 cpm/pmol, concentration as required). The reaction is initiated by the addition of Mg^2+[γ-^33P-ATP]. The test compound according to formula I is used in concentrations of 100, 25, 5, 1.25, 0.315, 0.078, 0.0195, 0.0049, 0.0012, 0.00031 μM. After incubations for 40 minutes at room temperature, the reaction is stopped by the addition of 5 μl of a 3% phosphoric acid solution. 10 μl of the reaction is then spotted onto a P30 filtermat and washed three times for 5 minutes in 50 mM phosphoric acid and once in methanol prior to drying and the degree of phosphorylation of the substrate is determined by scintillation counting.

Another assay has as its target rat JNK3 (Rattus norvegicus, UniProt P49187). As to the kind of experiment: JNK3 in vitro assay (33P incorporation into biotinylated GST-c-Jun, SPA beads). It is filed as biochemical. The note with it: in vitro potency on rat JNK3. As to the method:
The compounds of the present invention are inhibitors of JNKs. The phosphorylation of c-jun by JNK2 or JNK3 may be determined by monitoring the incorporation of ^33P into c-jun following the protocol below. The inhibitory activity of the compounds according to formula I, towards c-jun phosphorylation through JNK, is determined by calculating phosphorylation activity in the presence or absence of compounds according to formula I.
JNK3 and/or -2 assays are performed in 96 well MTT plates: incubation of 0.5 μg of recombinant, pre-activated GST-JNK3 or GST-JNK2 with 1 μg of recombinant, biotinylated GST-c-Jun and 2 μM ^33γ-ATP (2 nCi/μl), in the presence or absence of compounds according to formula I and in a reaction volume of 50 μl containing 50 mM Tris-HCl, pH 8.0; 10 mM MgCl2; 1 mM Dithiothreitol, and 100 μM NaVO4. The test compound according to formula I is used in concentrations of 10, 3, 033, 0.1, 0.033, 0.01, 0.0033, 0.001 μM. The incubation is performed for 120 min. at R.T and stopped upon addition of 200 μl of a solution containing 250 μg of Streptavidine-coated SPA beads (Amersham, Inc.)*, 5 mM EDTA, 0.1% Triton X-100 and 50 μM ATP, in phosphate saline buffer.
After incubation for 60 minutes at RT, beads are sedimented by centrifugation at 1500×g for 5 minutes, resuspended in 200 μl of PBS containing 5 mM EDTA, 0.1% Triton X-100 and 50 μM ATP and the radioactivity measured in a scintillation β counter, following sedimentation of the beads as described above.

Chain of human GSK3 β (P49841 whole entry): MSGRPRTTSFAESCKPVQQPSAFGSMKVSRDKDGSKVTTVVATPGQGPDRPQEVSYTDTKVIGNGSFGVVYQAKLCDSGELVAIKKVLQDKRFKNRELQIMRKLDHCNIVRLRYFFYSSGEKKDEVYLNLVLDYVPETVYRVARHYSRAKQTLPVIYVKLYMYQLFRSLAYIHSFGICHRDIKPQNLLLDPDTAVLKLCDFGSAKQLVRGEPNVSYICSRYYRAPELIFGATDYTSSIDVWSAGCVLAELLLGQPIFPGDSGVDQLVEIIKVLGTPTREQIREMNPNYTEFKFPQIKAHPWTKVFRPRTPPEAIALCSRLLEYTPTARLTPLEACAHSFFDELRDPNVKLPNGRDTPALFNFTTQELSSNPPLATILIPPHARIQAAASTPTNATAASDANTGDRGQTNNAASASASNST
Chain of rat JNK3 (P49187 whole entry): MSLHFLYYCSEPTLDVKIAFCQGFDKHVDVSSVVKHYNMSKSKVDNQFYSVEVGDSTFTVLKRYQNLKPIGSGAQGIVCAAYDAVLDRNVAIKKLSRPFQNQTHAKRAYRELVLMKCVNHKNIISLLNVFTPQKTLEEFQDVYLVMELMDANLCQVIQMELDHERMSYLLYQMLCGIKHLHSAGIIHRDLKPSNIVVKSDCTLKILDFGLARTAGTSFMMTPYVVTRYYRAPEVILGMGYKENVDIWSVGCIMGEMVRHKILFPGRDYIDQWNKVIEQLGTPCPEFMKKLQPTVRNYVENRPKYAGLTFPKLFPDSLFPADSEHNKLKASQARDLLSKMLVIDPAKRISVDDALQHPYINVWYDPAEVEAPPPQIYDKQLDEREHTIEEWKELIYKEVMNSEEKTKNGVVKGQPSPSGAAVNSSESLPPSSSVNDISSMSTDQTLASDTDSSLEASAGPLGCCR

As a reminder, the IC50 is the concentration needed to halve the response being measured. For the compound `CC1=CS/C(=C(/C#N)c2ccnc(N3CCC(Nc4ncccn4)CC3)n2)N1` [(4-methyl-1,3-thiazol-2(3H)-ylidene){2-[4-(pyrimidin-2-ylamino)piperidin-1-yl]pyrimidin-4-yl}acetonitrile], on human GSK3 β, the IC50 was below 10 µM. As for `CC1=CS/C(=C(/C#N)c2cc(NCc3ccco3)ncn2)N1` [{6-[(2-furylmethyl)amino]pyrimidin-4-yl}(4-methyl-1,3-thiazol-2(3H)-ylidene)acetonitrile], the half-inhibitory concentration (IC50) at human GSK3 β is below 10 µM. Still for that read-out and setting: as for `N#C/C(=C1\NC(c2ccccc2Cl)=CS1)c1ccnc(NC2CC2)n1` [[4-(2-chlorophenyl)-1,3-thiazol-2(3H)-ylidene][2-(cyclopropylamino)pyrimidin-4-yl]acetonitrile], the figure is below 10 µM.

Compound `CC1=CS/C(=C(/C#N)c2cc(N(C)c3ccccc3)nc(NCCc3cccnc3)n2)N1` [{6-[methyl(phenyl)amino]-2-[(2-pyridin-3-ylethyl)amino]pyrimidin-4-yl}(4-methyl-1,3-thiazol-2(3H)-ylidene)acetonitrile] yielded an IC50 against human GSK3 β below 10 µM.

On to `N#C/C(=C1\NC(C(=O)O)=CS1)c1ccnc(NCCCN2CCCC2=O)n1` [2-[cyano(2-{[3-(2-oxopyrrolidin-1-yl)propyl]amino}pyrimidin-4-yl)methylene]-2,3-dihydro-1,3-thiazole-4-carboxylic acid], for which the IC50 against human GSK3 β and at rat JNK3 was below 10 µM throughout. In the case of `CCC1=CS/C(=C(/C#N)c2ccnc(NCCc3ccc(S(N)(=O)=O)cc3)n2)N1` [4-[2-({4-[cyano(4-ethyl-1,3-thiazol-2(3H)-ylidene)methyl]pyrimidin-2-yl}amino)ethyl]benzenesulfonamide], the IC50 on human GSK3 β and against rat JNK3 was below 10 µM in each case. On to `CCC1=CS/C(=C(/C#N)c2ccnc(NC3CCN(S(C)(=O)=O)CC3)n2)N1`, for which the IC50 against rat JNK3 was below 10 µM. In the case of `CN(C)c1nc(/C(C#N)=C2/NC(c3ccccc3)=CS2)nc(N2CCCC3CCCCC32)n1` (centres unmarked) [[4-(dimethylamino)-6-(octahydroquinolin-1(2H)-yl)-1,3,5-triazin-2-yl](4-phenyl-1,3-thiazol-2(3H)-ylidene)acetonitrile], the IC50 at human GSK3 β is below 10 µM. `N#C/C(=C1\NC(c2ccccc2)=CS1)c1ccnc(NCCNc2ccc(C#N)cn2)n1` [6-{[2-({4-[cyano(4-phenyl-1,3-thiazol-2(3H)-ylidene)methyl]pyrimidin-2-yl}amino)ethyl]amino}nicotinonitrile] had an IC50 at rat JNK3 below 10 µM.
